From ChEMBL document CHEMBL1131368, “Synthesis of novel substituted pyridines as inhibitors of endothelin converting enzyme-1 (ECE-1)” (Bioorg Med Chem Lett, 1998)

Molecular target: T1, Endothelin-converting enzyme 1 (Homo sapiens, UniProt P42892)
T1 sequence (P42892 whole entry): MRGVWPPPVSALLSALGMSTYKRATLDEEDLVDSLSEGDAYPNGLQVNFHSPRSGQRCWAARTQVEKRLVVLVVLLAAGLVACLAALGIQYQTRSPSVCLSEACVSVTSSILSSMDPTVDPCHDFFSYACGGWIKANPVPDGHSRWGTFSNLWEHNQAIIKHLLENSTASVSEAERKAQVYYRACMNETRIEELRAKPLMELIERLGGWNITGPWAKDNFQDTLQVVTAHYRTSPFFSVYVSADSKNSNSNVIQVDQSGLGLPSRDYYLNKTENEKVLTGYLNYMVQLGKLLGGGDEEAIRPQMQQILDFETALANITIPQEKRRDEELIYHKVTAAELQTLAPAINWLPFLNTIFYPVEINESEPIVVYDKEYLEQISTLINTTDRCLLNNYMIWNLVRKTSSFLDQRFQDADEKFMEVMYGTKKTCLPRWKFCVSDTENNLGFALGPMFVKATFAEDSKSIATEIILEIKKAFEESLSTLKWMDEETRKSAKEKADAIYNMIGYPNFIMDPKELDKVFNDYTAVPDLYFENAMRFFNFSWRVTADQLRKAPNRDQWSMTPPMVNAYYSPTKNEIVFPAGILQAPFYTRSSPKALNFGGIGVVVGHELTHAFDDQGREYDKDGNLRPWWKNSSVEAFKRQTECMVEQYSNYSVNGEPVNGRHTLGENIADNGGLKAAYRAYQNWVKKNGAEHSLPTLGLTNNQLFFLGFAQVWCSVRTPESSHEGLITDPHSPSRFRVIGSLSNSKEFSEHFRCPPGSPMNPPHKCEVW
Assay: Inhibition of human recombinant Endothelin-converting enzyme 1.

Row | SMILES | IC50 [nM]
1 | CNc1nc(-c2nc(C(=O)O)cc(OC)c2OC)cs1 | 2600
2 | Cc1nc(-c2cccc(C(=O)O)n2)cs1 | 10000
3 | COc1cc(C(=O)O)nc(-c2csc(C)n2)c1OC | 1400
4 | COc1ccc(C(=O)O)nc1-c1csc(-c2ccc(-c3ccccc3)cc2)n1 | 10000
5 | COc1ccc(C(=O)O)nc1-c1csc(-c2ccc3ccccc3c2)n1 | 1500
6 | COc1cc(C(=O)O)nc(-c2ccoc2)c1OC | > 50000
7 | COc1cc(C(=O)O)nc(-c2cscn2)c1OC | 4300
8 | COc1cc(C(=O)O)nc(-c2cccn2C)c1OC | > 50000

Continued, values first:

Row | IC50 [nM] | SMILES
9 | 860 | COc1ccc(C(=O)O)nc1-c1csc(Cc2ccccc2)n1
10 | 1300 | COc1ccc(C(=O)O)nc1-c1csc(-c2ccccc2)n1
11 | > 50000 | COc1cc(C(=O)O)nc(-c2ccsc2)c1OC
12 | 980 | COc1ccc(C(=O)O)nc1-c1csc(CCc2ccccc2)n1
13 | 24000 | COc1ccc(C(=O)O)nc1-c1nccs1
14 | 1400 | COc1ccc(C(=O)O)nc1-c1csc(C)n1
15 | 2400 | COc1ccc(C(=O)O)nc1-c1c[nH]cn1
